# Columns and labels:
# [1] = Sorption of PFOA on house dust in near saturated vapor; assay type: physicochemical; details: more than 3 weeks
# Procedure: To achieve a sufficient concentration of PFOA on the house dust, a saturated vapor concentration procedure was created to adsorb/absorb PFOA on the house dust. This was done to ensure detectability in the tissue samples. Ten grams of solid pure perfluorooctanoic acid was placed in a glass jar bottle, capped with a lid, shaken and stored at room temperature (25 ± 0.1 °C) to allow vaporization and pre-equilibration of PFOA on the walls of the glass jars. Following equilibration of PFOA in the air and on walls of jars, a portion of 5 ± 0.03 g dust was placed in a polypropylene (PP) round plate inside each of four jars. These were capped and kept under the controlled room temperature and atmospheric pressure over time, mimicking a residential indoor environment, but with a saturated vapor of PFOA. Repeated samples of dust were withdrawn from the jars over time and analyzed for the PFOA content. This procedure was repeated over time for up to 6 weeks until a stable equilibrium concentration of PFOA was attained adsorbed to the dust. […]
# During the adsorption process, the concentration of PFOA adsorbed to the dust was periodically measured after a rotatory mixing of dust samples with a tube rotator or 24 h prior to the extraction procedures and instrumental analysis. […]
# [2] = Vapor concentration of PFOA at outlet of vapor generation chamber; assay type: physicochemical; details: room temperature, after 24 h
# Procedure: The gas phase of PFOA was collected with OSHA Versatile Sampling (OVS) tubes with XAD-2 resin (SKC). Samples were collected at a flowrate of 0.04 L/min using vacuum sampling pumps. Collection times were set for 5 min typically for a 200 mL air sample. PFOA from the OVS sampler was extracted prior to analysis into two fractions with each fraction placed into individual PP tubes. Fraction A consisted of the glass or quartz fiber filter and first section of XAD resin beads and the first polyurethane foam (PUF) filter. Fraction B consisted of the second section of XAD resin beads and the back PUF filter. All samples were spiked with 50 μL of 1 μg/mL C13 solution, the surrogate standard. Each section was placed in PP tube to which 5 mL of HPLC-grade methanol was added. The tube was shaken for 60 min on a mechanical flatbed shaker set at ∼2 cycles per second. Approximately 4.5 mL of each extract was transferred to a pre-baked amber glass vial by filtering through a Gelman GHP Acrodisc (Pall Gelman Laboratory, Ann Arbor, MI, USA.). Each extract of consisting of 200 μL was transferred to an autosampler vial with PP insert. […]
# The vapor concentration of PFOA (Cpfoa) measured at the outlet of the vapor pressure generation chamber is described in detail in Supplementary Information and shown in Fig. S1. […]
# [3] = system: albumin in serum; parameters: method as in Han et al. [2003]; details: ref Han et al. [2003]; cited from earlier work
# [4] = parameters: method as in Iwabuchi et al. [2017]; details: oral 100 μg/kg bw, male rats, ref Iwabuchi et al. [2017], cited from earlier work
structure (smiles),measurement,setting,value
"O=C(O)C(F)(F)C(F)(F)C(F)(F)C(F)(F)C(F)(F)C(F)(F)C(F)(F)F [PFOA, Perfluorooctanoic acid]",Steady state concentration of PFOA on house dust,[1],0.335 g/g coated dust
same,Stable (saturation) vapor concentration of PFOA,[2],1.37e-05 µg/L
same,PFOA bound to albumin in serum,[3],more than 90%
same,Liver to serum ratio,[4]; at Cmax (12 h),1.67
same,Kidney to serum ratio,[4],0.82
